Results from a melting point compilation (Tetko et al.; mined from patent text by program, amines drawn as free bases though some values may be those of a salt).

Row | SMILES | melting point
1 | COc1ccc(N2CCN(C(=O)Oc3ccc(Oc4ccc(C(F)(F)F)cn4)cc3)CC2)c(OC)c1 | 98 to 99 °C
2 | Cc1ccc(CSc2nc(C)n(C)c(=O)c2Br)cc1 | 73 to 74 °C
3 | COc1ccc(C2=NN(c3ccc(OCCCCBr)cc3)C(=O)[C@@H]3CC=CC[C@H]23)cc1OC | 38 to 43 °C
4 | COCc1c(C(=O)OC(C)(C)C)ncc2[nH]c3ccc(OCc4ccccc4)cc3c12 | 160 to 167 °C
5 | O=C(O)c1ccccc1-c1ccc(C(F)(F)F)c(Cl)c1 | 181 to 184 °C
6 | CN1CC=C(CC(=O)N2c3ccccc3NC(=O)c3ccccc32)CC1 | 200 to 201 °C
7 | CC1(C)Oc2ccc(S(=O)(=O)c3ccc(O)cc3)cc2[C@@H](Oc2ccc(O)nn2)[C@]1(C)O | > 200 °C
8 | CCc1cnc(N2CCC(c3ccc(COc4ccc(C#N)c(F)c4)nc3)CC2)nc1 | 129 to 131 °C
9 | CSc1cc(C)nc(SC)c1NC(=O)CN1CCN(CCSc2nc3ccccc3s2)CC1 | 136 to 139 °C
10 | COc1cn(-c2ccc(-n3cccn3)cc2F)nc(-c2ccnn2-c2cccc(OC(F)(F)F)c2)c1=O | 148 to 150 °C
11 | NC(=S)c1ccc(Br)cc1 | 142 to 144 °C
12 | CCOC(=O)CCc1c[nH]c(-c2cccs2)c1 | 39 to 40 °C
13 | Cc1c(NC(=O)OCCCl)cc([N+](=O)[O-])c(N)c1C | 151 °C
14 | COc1ccc(C(=O)Nc2c(Cl)cncc2Cl)c2c(CC(=O)O)coc12 | 270 to 278 °C
15 | N#CCC(=O)c1cc(F)c(F)c(F)c1F | 55 to 57 °C
16 | CN1C(=O)N(c2ccc([N+](=O)[O-])c(C(F)(F)F)c2)C(=O)C1(C)C | 116 °C
17 | C[C@@H](O)[C@H]1CC[C@H]2[C@@H]3CC=C4CC(=O)CC[C@]4(C)[C@H]3CC[C@]12C | 171 to 175 °C
18 | OCCN1CCN(c2cc(Sc3ccc(Cl)cc3)nc(-c3ccccc3)n2)CC1 | 118 to 120 °C
19 | COc1ccc(NS(=O)(=O)c2ccc(N3CCC(NC[C@H](O)COc4cccc5[nH]c6ccccc6c45)CC3)cc2)cc1OC | 58 to 64 °C
20 | Cc1ncccc1NC(=NC#N)NC(NC(=O)CCCc1cccs1)C(C)(C)C (centres undefined) | 66 to 68 °C
21 | Cn1c(=O)n(-c2ccnc(N)c2)c2ccccc21 | 204 to 205 °C

Row | SMILES | melting point
22 | CC(C)Cc1ccc2nc(Cl)cn2n1 | 71 to 72.5 °C
23 | CCOC(=O)C(=CNc1cc(C)no1)C(=O)OCC | 134 to 136 °C
24 | COc1ccc(-c2nn(-c3ccsc3)c3c(Cl)cccc23)cc1 | 111 °C
25 | COc1cncc(-c2cncc(OC3SCC(O)C(O)C3O)c2)c1 (centres undefined) | 193 °C
26 | O=c1cc(-c2ccoc2)c2ccc(CBr)cc2o1 | 155 to 156 °C
27 | Clc1ccc2c(c1)C(NC1=NCCS1)CCC2 (centres undefined) | 164 to 166 °C
28 | Cc1cccc(C2=C(c3ccc(F)c(-c4cn[nH]c4)c3)NN(C(C)C)C2)n1 | 129 to 136 °C
29 | CCS(=O)(=O)C1(C(O)(Cn2cncn2)c2ccc(Cl)cc2)CC1 (centres undefined) | 215 °C
30 | O=C1CCCN1CCCN=c1sc2ccccc2s1 | 101 to 104 °C
31 | Nc1nc(C2CCN(C(=O)Cc3ccc(O)c(O)c3)CC2)c2ccccc2n1 | 250 to 253 °C
32 | Cc1ccc2nc(-c3ccc(C=O)cc3)cn2c1 | 210 to 211 °C
33 | CC(C)C(C(=O)O)c1ccc2ccccc2c1 (centres undefined) | 129 to 130 °C
34 | N#Cc1nn(-c2c(Cl)cc(C(F)(F)F)cc2Cl)cc1C1CC(=O)C1(Cl)Cl (centres undefined) | 118 to 120 °C
35 | CCOC(=O)CCc1nc(-c2ccc(Cl)cc2)co1 | 65 to 66 °C
36 | O=C(NO)c1ccc(CNC(=O)c2[nH]c(-c3ccc(F)cc3)cc2-c2ccc(F)cc2)cc1 | 219 to 220 °C
37 | Cc1ccc(C)c2[nH]c(N)nc12 | 164 to 170 °C
38 | COC(=O)c1nc(Nc2cccc(C(F)(F)F)c2)sc1-c1ccccc1 | 147 to 149 °C
39 | O=c1cccc2nccncc1-2 | 145 to 147 °C
40 | CN1C(=O)C2C3C=CC(CC3)C2S1=O (centres undefined) | 118 to 120 °C
41 | CCC(=O)c1nc(C(C)(C)C)c(O)c(C(C)(C)C)n1 | 123 to 125 °C
42 | Cn1cc(C(F)(F)F)c(C(=O)O)n1 | 174 to 175 °C

Row | SMILES | melting point
43 | Nc1nc(OCc2cccs2)ncc1F | 92 to 94 °C
44 | COc1ccc(CCc2cccc(C(=O)Nc3ccc(Cl)cc3)c2O)cc1 | 141 °C
45 | C#CC(C)Oc1cc(-c2nn3c(c2Cl)CCCC3)c(F)cc1Cl (centres undefined) | 116 to 120 °C
46 | COC(=O)NC(=O)NS(=O)(=O)c1ccc([N+](=O)[O-])cc1 | 150 to 158 °C
47 | CC(C)=CCC[C@H](C)CC(=NO)C(C[C@@H](C)CCC=C(C)C)=NO | 131 to 132 °C
48 | FC(F)(F)C=NNc1c(Cl)cc(C(F)(F)F)cc1Cl | 45 to 46 °C
49 | O=C(NCCc1ccccc1)C1=C(C(=O)Nc2cc(OC3CCCC3)c(Cl)cc2F)CCCC1 | 165 to 166 °C
50 | COc1ccc2[nH]cc(-c3cc4nccnc4[nH]3)c2c1 | 268 to 271 °C
51 | O=C(c1ccc(NC(=O)C(O)(C(F)F)C(F)F)cc1)c1ccccn1 | 158 to 161 °C
52 | CCCc1c(OCCCSc2nnc(SCC(=O)O)s2)ccc(C(C)=O)c1O | 129 to 130 °C
53 | CC(C)(F)[C@H]1C(=O)N[C@@H]1CC(=O)O (racemic) | 118 to 122 °C
54 | CCCCn1c(=O)c2cc(C(=O)OCC)cn2c2cc(Cl)ccc21 | 172 to 174 °C
55 | O=C1C=C(NC(=O)C(=O)c2cn(Cc3ccc4ccccc4c3)c3ccccc23)CO1 | 283 to 285 °C
56 | CS(=O)(=O)NCCCCn1c(CCO)nc2c(N)nc3ccccc3c21 | 206 to 208 °C
57 | S=C(Nc1ccccc1)OC1CN2CCC1CC2 (centres undefined) | 132 to 133 °C
58 | O=c1[nH]c2ccc(F)cc2c(=O)n1CCS | 240 to 242 °C
59 | CCC(=O)c1ccc(OC(C)c2ccc(Cl)cc2)cc1 (centres undefined) | 70 to 71 °C
60 | CCCCCCCCOc1ccc(-c2nc(-c3ccccc3)c(-c3ccccc3)[nH]2)cc1 | 178 °C
61 | CCOC(=O)[C@@H]1C[C@H]2C[C@H](COCC#N)CC[C@H]2CN1C(=O)OC (racemic) | 263 °C
62 | N#Cc1nn(-c2c(Cl)cc(C(F)(F)F)cc2Cl)c(SCc2ccccc2)c1S(=O)(=O)C(F)(F)F | 117 to 119 °C
63 | COC(=O)COc1ccc([C@H]2c3ccc(O)cc3OC[C@H]2c2ccccc2)cc1 (racemic) | 133 to 134 °C

Now from value to compound:

Row | melting point | SMILES
64 | 154 to 155 °C | O=C(c1ccccc1)n1c(=O)c(C(F)(F)F)cn(C2CC(OCc3ccccc3)C(CO)O2)c1=O (centres undefined)
65 | 113 to 115 °C | Oc1cccc(C2CCCN2Cc2ccccc2)c1 (centres undefined)
66 | 209 to 214 °C | Cc1nnccc1-c1c(-c2ccccc2)nn2ccccc12
67 | 285 °C | O=C(O)c1cncc2cccc([N+](=O)[O-])c12
68 | 76 to 77 °C | c1coc(CNc2nccc3ccccc23)c1
69 | 145 to 147 °C | CCCNCc1cnc(-c2ncn3c2[C@@H]2CCN2C(=O)c2sccc2-3)o1
70 | 114 to 116 °C | Cc1sc(N)c(C(=O)c2ccc(Cl)cc2)c1CN(C)Cc1ccccc1
71 | 365 °C | O=c1[nH]c(=O)c2ccncc2[nH]1
72 | 148 to 151 °C | O=C(O)C(CCc1ccccc1)NS(=O)(=O)c1ccc2sc3ccccc3c2c1 (centres undefined)
73 | 85 to 86 °C | CC1OC(n2c(Cl)nc3cc(Cl)c(Cl)cc32)C(O)C1O (centres undefined)
74 | 132 to 134 °C | Cc1ccc2c(c1)[C@H](Nc1nc(N)nc(C(F)F)n1)[C@@H](C)C2
75 | 24 to 25 °C | CC(CSC#N)C(=O)O (centres undefined)
76 | 155 to 158 °C | COC(=O)c1nc(-c2ccc(Cl)c(OC)c2F)nc(N)c1OC
77 | 181 to 183 °C | O=C(Nc1ccc2nc(CN3CCCC3)ccc2c1)c1ccc(-c2ccccc2)cc1
78 | 218 to 221 °C | COc1cn(-c2cccc(-c3cnn(C)c3)c2F)nc(-c2ccnn2-c2ccccc2)c1=O
79 | 205 °C | S=C(Nc1ccccc1)N1CCc2[nH]cnc2C1
80 | 244 to 248 °C | O=C(Nc1nc(-c2ccco2)c(-c2ccncc2)s1)c1ccn(Cc2ccccc2)c(=O)c1
81 | 139 to 140 °C | CNc1ncc(CO)c(NC2CC2)n1
82 | 298 to 299 °C | NC(=O)c1nc(N)nc(N)c1-c1ccc(Cl)cc1Cl
83 | 166 to 168 °C | N#Cc1cc(C(=O)O)n(/C=C/c2ccccc2)c1
84 | 237 to 239 °C | O=S(=O)(c1ccc(O)c(Br)c1)N1c2ccc(Br)cc2-c2ccccc2C1c1ccccc1 (centres undefined)

Row | melting point | SMILES
85 | 185 to 189 °C | O=C(CN1CCC(Cc2ccccc2)CC1)Nc1ccc2[nH]cnc2c1
86 | 101 to 102 °C | CC(C(=O)O)C(=O)c1ncc(Cl)cc1F (centres undefined)
87 | 109 to 110 °C | Cc1nc2c(N)nc3ccccc3c2n1CCCCOCC#Cc1ccccc1
88 | 122 to 123 °C | CCOC(=O)c1csc(Cc2ccc([N+](=O)[O-])cc2)n1
89 | 106 to 108 °C | CC1(C2CCCC2)Cc2cc(OCCCCC(=O)O)c(Cl)c(Cl)c2C1=O (centres undefined)
90 | 73 to 75 °C | CNC(=O)C(Cc1c[nH]c2ccccc12)NC(=O)C(CC(C)C)C(S)CC(=O)OC (centres undefined)
91 | 211 to 213 °C | CCc1n[nH]c2cc(-c3ccc4nnn(Cc5ccc6ncccc6c5)c4n3)ccc12
92 | 201 to 204 °C | Ic1c[nH]c2ncccc12
93 | 190 to 192 °C | CCOC(=O)C=Cc1cnc(Nc2ccccc2)nc1N
94 | 89 to 90 °C | COCCOc1ccc(CN)cc1O
95 | 63.4 °C | CCOC(=O)C=Cc1cc(OC)c(OC)c(OC)c1
96 | 167 to 169 °C | CCOC(=O)CCCOc1ccc(S(=O)(=O)n2c(=O)[nH]c3cc(Cl)ccc3c2=O)cc1
97 | 217 to 220 °C | CNc1c(N)n(CC(C)(C)C)c(=O)[nH]c1=O
98 | 108 to 109 °C | CCOC(=O)c1conc1-c1ccc(F)c(Cl)c1
99 | 283 °C | Cc1sc(Nc2cc(F)ccn2)nc1-c1cn[nH]c1
100 | 206 °C | N#Cc1ccc(CC(NC(=O)C(Cc2ccccc2)S(=O)(=O)Nc2ccc3ccccc3c2)C(=O)N2CCCC2)cc1 (centres undefined)
101 | 164 to 165 °C | COC(C)CCC1(O)C2=NCCCN2c2cccc(Cl)c21 (centres undefined)
102 | 252 to 253 °C | Cn1ncc(/C=C/C(=O)Nc2ccc(Cc3nnn[nH]3)cc2)c1-c1ccc(F)cc1
103 | 234 °C | O=C(Nc1ccc(S(=O)(=O)C(F)(F)F)cc1Cl)c1cc(Cl)c2ccccc2c1O
104 | 193 °C | COc1cc2nc3ccccc3sc-2c(OC)c1=O
